Measured values published in ChEMBL document CHEMBL1201862, “PubChem BioAssay data set” (2004).
Calls of active or inactive are those of the source.

How the values were obtained:
[1] = molecular target: T1, Probable nicotinate-nucleotide adenylyltransferase (Staphylococcus aureus (strain N315), UniProt P65502); type: functional, Staphylococcus aureus subsp. aureus N315; settings: read-out: IC50_Mean;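 as to IC50 Mean: confirmatory dose-response retesting of NadD inhibitor hits first found in an ultra-high-throughput screen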
[2] = molecular target: T1, Probable nicotinate-nucleotide adenylyltransferase; type: functional, Staphylococcus aureus subsp. aureus N315
Genome polyprotein = Genome polyprotein (Hepatitis C virus, UniProt Q2Q167); experiment: HCV core protein dimerization inhibitors, dose response, biochemical, TR-FRET (AID 2159); parameters: species or system Hepacivirus hominis;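 also: blocks dimerization of HCV core protein measured by TR-FRET between tagged core106 pairs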
[3] = cytotoxicity toward NIH3T3 fibroblasts, dose response, counter-screen, cell-based, ATP luminescence, mouse fibroblasts (AID 2010); type: functional;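 also: cells exposed to compound for about 90 hours before reading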
[4] = inhibitors of intracellular T. cruzi replication, confirmation, NIH3T3 host cells, beta-gal luminescence (AID 2044); type: functional, cell-based;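 also: intracellular parasites grown in NIH/3T3 mouse fibroblasts as host cells; luminescent beta-galactosidase reporter signal from transgenic T. cruzi replicating inside host cells; inhibitors lower the luminescence signal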
[5] = molecular target: T2, Mannose-6-phosphate isomerase (Homo sapiens, UniProt P34949); experiment: human PMI inhibitors, high substrate, primary screen, biochemical, fluorescence intensity, high mannose 6-phosphate (AID 1220)
T2 sequence (P34949 whole entry): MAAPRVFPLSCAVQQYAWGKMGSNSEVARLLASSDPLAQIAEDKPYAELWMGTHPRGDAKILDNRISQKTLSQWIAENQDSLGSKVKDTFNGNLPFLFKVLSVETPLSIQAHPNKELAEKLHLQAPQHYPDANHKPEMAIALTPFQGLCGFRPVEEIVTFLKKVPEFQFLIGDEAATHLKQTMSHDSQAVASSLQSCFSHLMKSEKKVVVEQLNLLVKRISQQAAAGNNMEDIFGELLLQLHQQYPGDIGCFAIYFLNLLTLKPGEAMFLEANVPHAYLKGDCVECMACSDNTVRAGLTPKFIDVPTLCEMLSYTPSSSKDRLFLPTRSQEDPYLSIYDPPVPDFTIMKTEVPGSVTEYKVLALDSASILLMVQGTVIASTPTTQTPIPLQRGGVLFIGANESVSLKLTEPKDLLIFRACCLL

[6] = growth suppression of PTEN-null colon cells, dose response, cell-based, HCT116 PTEN knockout (AID 1047); type: functional;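 also: HCT116 colon tumor cells with PTEN knocked out; cells exposed to compound for 60 hours before readout; potency for loss of cell viability measured by luminescence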
Coagulation factor XII = molecular target: T3, Coagulation factor XII (Homo sapiens, UniProt P00748); type: functional;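 also: activated factor XIIa alpha cleaving a fluorogenic AMC peptide substrate; inhibitor potency from loss of enzyme activity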
T3 sequence (P00748 whole entry): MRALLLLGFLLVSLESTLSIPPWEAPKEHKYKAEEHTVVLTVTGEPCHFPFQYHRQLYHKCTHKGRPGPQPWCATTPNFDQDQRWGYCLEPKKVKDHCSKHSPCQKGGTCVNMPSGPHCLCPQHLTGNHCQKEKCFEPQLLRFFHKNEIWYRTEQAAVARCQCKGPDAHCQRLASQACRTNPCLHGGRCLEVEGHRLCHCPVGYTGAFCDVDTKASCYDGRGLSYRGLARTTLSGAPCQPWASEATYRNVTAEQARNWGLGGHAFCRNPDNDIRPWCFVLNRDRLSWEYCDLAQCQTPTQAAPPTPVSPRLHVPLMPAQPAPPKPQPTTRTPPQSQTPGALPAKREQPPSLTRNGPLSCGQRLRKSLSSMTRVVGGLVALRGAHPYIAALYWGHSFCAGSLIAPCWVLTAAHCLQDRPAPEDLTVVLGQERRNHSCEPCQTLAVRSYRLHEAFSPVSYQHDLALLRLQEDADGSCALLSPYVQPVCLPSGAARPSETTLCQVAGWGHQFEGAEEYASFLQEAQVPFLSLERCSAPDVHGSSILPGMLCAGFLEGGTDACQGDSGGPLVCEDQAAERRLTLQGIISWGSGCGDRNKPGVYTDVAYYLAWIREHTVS

[7] = growth suppression of beta-catenin-knockout colon cells, dose response, cell-based, HCT116, human colon tumor (AID 1045); type: functional;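 also: HCT116 colon tumor cells with beta catenin knocked out; cells exposed to compound for 60 hours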
[8] = molecular target: DNA damage-inducible transcript 3 protein (Mus musculus, UniProt P35639); type: functional, Cricetulus griseus
14-3-3 protein gamma = 14-3-3 protein gamma (Homo sapiens, UniProt P61981); experiment: modulators of 14-3-3 gamma client binding – dose response (AID 711); type: functional
Cytochrome P450 2C19 = Cytochrome P450 2C19 (Homo sapiens, UniProt P33261); experiment: qHTS Assay for Inhibitors and Substrates of Cytochrome P450 2C19. [Related pubchem assays: 410 ]; type: ADME; settings: read-out: Potency
INS1 = experiment: beta cell apoptosis inhibitors, cytokine rescue, dose response, luminescence, retest (AID 449756); type: functional, cell-based; settings: Rattus norvegicus;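 also: cell death triggered by IL-1 beta plus TNF-alpha plus IFN-gamma mixture; protective hits raise ATP signal compared with cytokine alone wells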
Melanocortin receptor 4 = Melanocortin receptor 4 (Homo sapiens, UniProt P32245); type: functional, cell-based;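 also: Cell-based assay with luminescence read-out, confirmatory dose-response testing for agonist activity of biased ligands at MC4R; human U2OS cells with tagged receptor and beta-arrestin; potency of agonists that increase receptor coupling to beta-arrestin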
[9] = molecular target: Induced myeloid leukemia cell differentiation protein Mcl-1 (Homo sapiens, UniProt Q07820); experiment: MCL1-BIM BH3 interaction inhibitors, dose response, biochemical, fluorescence polarization, BIM-BH3 peptide, 1536-well (AID 2217)
[10] = molecular target: Heat shock protein HSP 90-alpha (Homo sapiens, UniProt P07900); type: functional, organism-based
[11] = molecular target: T4, RNA-binding protein pos-1 (Caenorhabditis elegans, UniProt G5EF15); experiment: inhibitors of POS-1/mex-3 RNA binding, dose response, biochemical, fluorescence polarization (AID 1964);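 also: purified POS-1 fused to maltose binding protein made in E. coli; potency of compounds blocking POS-1 binding to fluorescent RNA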
T4 sequence (G5EF15 whole entry): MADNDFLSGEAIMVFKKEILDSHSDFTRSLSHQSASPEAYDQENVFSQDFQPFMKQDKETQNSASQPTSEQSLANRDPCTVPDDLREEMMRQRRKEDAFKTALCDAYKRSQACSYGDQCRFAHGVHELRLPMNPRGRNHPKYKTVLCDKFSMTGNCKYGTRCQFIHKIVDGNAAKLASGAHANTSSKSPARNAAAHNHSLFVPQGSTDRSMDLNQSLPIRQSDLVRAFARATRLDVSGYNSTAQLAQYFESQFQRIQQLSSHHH

[12] = molecular target: T5, Long-chain-fatty-acid--AMP ligase FadD28 (Mycobacterium tuberculosis, UniProt P9WQ59); experiment: Fluorescence polarization aasay to screen for inhibitors that compete for the binding of FadD28 to a bisubstrate Measured in Biochemical System Using Plate Reader - 2147-01_Inhibitor_Dose_CherryPick_Activity.; type: functional, Mycobacterium tuberculosis H37Rv
T5 sequence (P9WQ59 whole entry): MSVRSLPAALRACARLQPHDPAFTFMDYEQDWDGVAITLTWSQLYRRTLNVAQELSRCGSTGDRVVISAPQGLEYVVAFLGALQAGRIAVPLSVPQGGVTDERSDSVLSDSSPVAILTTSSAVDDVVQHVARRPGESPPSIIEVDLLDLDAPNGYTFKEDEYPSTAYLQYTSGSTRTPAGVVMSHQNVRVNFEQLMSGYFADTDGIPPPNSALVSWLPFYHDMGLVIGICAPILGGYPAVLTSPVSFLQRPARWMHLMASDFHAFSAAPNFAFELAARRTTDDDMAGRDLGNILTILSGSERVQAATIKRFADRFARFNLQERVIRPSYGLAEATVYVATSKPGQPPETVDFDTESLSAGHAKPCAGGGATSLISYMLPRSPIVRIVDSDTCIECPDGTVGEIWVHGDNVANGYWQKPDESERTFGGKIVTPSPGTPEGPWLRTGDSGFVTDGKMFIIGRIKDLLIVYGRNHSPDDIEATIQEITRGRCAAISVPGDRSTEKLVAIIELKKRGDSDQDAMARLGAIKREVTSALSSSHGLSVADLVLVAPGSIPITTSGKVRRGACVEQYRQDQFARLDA

Bcl-2-like protein 1 = Bcl-2-like protein 1 (Homo sapiens, UniProt Q07817); experiment: BCL-XL inhibitors, dose response, selectivity assay for MCL1 inhibitor project, biochemical, fluorescence polarization, 1536-well (AID 2218)
[13] = molecular target: T6, Zinc finger protein mex-5 (Caenorhabditis elegans, UniProt Q9XUB2); experiment: MEX-5/TCR-2 RNA interaction inhibitors, dose response, biochemical, C. elegans, fluorescence polarization (AID 1960)
T6 sequence (Q9XUB2 whole entry): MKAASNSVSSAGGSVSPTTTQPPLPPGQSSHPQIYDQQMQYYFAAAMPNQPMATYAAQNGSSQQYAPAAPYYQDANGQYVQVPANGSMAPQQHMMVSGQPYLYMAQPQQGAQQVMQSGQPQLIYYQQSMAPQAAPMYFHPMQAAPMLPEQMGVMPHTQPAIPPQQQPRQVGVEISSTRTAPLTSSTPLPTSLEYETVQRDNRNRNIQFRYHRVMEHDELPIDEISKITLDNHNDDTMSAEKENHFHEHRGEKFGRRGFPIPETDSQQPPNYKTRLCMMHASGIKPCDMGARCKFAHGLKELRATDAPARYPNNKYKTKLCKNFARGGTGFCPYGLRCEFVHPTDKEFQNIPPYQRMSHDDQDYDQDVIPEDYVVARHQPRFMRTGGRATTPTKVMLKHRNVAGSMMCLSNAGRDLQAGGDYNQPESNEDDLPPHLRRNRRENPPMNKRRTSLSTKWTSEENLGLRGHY

Estrogen receptor beta = Estrogen receptor beta (Homo sapiens, UniProt Q92731);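 also: recombinant ER-beta bound to coactivator SRC1 peptide in presence of estradiol agonist; inhibitors block coactivator peptide binding and lower the FRET signal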
[14] = Luminescence Cell-Based Dose Retest to Confirm Inhibitors of Cancer Stem Cells. [Related pubchem assays (depositor defined):AID2717, AID2721]; type: functional; settings: Homo sapiens
Vero = experiment: host cell cytotoxicity of antiviral hits, dose response, cytotoxicity control for West Nile virus antiviral project, secondary assay (AID 1650); type: functional; settings: Chlorocebus sabaeus
[15] = molecular target: T7, Calpain-2 catalytic subunit (Sus scrofa, UniProt P43367); experiment: pig calpain II inhibitor potency, dose response, biochemical, fluorogenic peptide substrate (AID 1420); type: functional
T7 sequence (P43367 whole entry): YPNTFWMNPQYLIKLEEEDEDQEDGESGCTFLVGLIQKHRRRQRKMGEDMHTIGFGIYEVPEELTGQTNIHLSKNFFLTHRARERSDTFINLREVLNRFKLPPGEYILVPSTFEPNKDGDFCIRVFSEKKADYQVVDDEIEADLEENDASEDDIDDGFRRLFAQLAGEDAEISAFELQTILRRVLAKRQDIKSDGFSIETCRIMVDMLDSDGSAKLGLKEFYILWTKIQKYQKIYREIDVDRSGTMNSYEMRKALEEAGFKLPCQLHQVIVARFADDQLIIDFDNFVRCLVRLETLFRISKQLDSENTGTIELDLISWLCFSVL

Cytochrome P450 2C9 = Cytochrome P450 2C9 (Homo sapiens, UniProt P11712)
[16] = molecular target: Aryl hydrocarbon receptor (Homo sapiens, UniProt P35869); experiment: Luminescence-based cell-based high throughput dose response assay for activators of the Aryl Hydrocarbon Receptor (AHR). [Related pubchem assays: 2796 (Primary screen (AHR activators in singlicate)), 2845 (Confirmation screen (AHR activators in triplicate)), 434939 (Counterscreen (PXR activators in triplicate)), 2804 (Summary (AHR activators))]; type: ADME
[17] = Luminescence Cell-Based Secondary HTS screen to identify cytotoxic compounds of NIH3T3 cells. [Related pubchem assays: 1885, 1968 ]; type: functional

Sequence of 14-3-3 protein gamma (P61981 whole entry): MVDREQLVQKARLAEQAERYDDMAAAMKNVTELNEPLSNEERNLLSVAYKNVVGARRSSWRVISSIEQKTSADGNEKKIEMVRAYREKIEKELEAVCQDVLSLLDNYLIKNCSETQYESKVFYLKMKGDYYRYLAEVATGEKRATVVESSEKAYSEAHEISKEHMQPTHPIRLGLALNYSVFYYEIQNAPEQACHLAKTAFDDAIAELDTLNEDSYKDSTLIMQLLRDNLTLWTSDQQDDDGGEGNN
Sequence of Bcl-2-like protein 1 (Q07817 whole entry): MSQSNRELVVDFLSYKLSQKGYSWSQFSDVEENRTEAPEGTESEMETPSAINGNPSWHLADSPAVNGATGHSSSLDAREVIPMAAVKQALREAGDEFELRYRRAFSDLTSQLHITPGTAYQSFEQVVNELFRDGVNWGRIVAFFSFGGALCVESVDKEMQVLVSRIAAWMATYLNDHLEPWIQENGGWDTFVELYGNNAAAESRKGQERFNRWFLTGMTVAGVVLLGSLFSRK
Sequence of Cytochrome P450 2C19 (P33261 whole entry): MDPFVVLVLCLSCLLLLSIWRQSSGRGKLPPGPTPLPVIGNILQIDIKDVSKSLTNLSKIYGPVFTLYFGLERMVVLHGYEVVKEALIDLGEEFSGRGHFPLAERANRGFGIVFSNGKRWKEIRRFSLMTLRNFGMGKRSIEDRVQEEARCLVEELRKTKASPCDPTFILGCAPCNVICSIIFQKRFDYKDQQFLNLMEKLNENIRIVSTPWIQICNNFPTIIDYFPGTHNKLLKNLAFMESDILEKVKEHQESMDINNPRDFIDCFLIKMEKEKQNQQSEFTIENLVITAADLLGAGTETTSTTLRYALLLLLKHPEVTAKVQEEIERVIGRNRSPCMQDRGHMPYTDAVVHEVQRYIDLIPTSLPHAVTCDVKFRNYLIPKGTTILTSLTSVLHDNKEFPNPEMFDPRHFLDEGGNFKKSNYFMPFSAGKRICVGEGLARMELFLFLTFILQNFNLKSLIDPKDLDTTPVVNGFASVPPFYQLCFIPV
T1 sequence (P65502 whole entry): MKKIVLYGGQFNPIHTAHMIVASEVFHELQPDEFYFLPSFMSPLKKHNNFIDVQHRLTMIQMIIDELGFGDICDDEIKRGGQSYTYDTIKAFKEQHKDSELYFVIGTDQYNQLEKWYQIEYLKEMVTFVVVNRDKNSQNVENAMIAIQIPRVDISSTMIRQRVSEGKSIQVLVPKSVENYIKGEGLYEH
Sequence of Induced myeloid leukemia cell differentiation protein Mcl-1 (Q07820 whole entry): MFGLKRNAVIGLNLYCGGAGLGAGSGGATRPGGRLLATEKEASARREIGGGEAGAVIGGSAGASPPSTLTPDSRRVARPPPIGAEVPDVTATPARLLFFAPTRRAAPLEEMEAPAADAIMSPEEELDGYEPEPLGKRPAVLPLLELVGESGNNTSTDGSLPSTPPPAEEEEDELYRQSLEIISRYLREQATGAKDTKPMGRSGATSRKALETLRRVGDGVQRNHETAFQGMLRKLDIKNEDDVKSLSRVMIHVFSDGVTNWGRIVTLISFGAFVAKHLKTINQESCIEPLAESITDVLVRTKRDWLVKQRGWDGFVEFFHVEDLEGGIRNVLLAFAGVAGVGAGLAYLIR
Sequence of Aryl hydrocarbon receptor (P35869 whole entry): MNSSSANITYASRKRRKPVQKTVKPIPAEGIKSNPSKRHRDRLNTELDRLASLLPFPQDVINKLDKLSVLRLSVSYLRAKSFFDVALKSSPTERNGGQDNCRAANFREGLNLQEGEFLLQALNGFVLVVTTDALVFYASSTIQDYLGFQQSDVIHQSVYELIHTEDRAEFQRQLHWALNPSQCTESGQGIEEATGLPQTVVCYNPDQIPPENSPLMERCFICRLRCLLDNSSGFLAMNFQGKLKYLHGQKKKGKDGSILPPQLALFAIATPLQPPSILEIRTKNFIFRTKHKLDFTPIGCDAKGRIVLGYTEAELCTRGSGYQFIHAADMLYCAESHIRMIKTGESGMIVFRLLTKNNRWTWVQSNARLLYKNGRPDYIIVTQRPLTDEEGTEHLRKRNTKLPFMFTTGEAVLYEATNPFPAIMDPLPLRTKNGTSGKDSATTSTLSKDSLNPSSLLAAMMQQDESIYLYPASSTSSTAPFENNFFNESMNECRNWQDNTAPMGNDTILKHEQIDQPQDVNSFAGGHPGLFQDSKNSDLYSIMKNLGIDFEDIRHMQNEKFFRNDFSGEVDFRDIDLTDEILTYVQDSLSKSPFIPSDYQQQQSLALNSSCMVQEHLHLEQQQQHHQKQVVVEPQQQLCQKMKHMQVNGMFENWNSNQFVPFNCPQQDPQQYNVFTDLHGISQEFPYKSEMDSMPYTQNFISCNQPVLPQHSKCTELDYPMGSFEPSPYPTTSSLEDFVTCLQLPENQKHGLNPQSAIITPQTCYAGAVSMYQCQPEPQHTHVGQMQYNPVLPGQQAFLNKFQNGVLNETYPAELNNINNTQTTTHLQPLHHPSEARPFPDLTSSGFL
Sequence of Genome polyprotein (Q2Q167 whole entry): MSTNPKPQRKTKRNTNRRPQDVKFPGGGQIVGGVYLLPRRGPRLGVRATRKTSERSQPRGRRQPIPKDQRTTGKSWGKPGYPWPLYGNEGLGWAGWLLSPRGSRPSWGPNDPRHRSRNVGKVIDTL
Sequence of Estrogen receptor beta (Q92731 whole entry): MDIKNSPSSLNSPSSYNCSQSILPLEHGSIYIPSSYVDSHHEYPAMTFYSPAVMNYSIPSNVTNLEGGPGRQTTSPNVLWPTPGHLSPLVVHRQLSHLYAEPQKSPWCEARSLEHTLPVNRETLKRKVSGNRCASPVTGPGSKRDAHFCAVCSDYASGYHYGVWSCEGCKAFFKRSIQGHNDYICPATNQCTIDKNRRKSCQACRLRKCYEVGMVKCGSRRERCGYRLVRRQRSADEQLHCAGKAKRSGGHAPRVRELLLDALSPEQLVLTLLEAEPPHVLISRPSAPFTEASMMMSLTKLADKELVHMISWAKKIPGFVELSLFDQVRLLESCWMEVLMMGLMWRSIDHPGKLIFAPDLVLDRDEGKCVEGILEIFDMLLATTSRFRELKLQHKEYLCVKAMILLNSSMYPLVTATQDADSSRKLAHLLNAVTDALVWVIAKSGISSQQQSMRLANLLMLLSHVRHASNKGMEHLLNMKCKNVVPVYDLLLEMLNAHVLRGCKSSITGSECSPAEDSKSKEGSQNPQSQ
Sequence of Melanocortin receptor 4 (P32245 whole entry): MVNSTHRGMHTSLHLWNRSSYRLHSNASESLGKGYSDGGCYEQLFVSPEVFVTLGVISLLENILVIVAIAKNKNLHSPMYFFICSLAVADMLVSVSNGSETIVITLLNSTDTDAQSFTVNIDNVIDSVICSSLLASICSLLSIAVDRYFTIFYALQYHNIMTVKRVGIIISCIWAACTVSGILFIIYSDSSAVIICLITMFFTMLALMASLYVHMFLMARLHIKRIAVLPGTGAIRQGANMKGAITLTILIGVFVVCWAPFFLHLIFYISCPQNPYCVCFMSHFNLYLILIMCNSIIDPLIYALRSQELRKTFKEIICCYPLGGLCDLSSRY
Sequence of Cytochrome P450 2C9 (P11712 whole entry): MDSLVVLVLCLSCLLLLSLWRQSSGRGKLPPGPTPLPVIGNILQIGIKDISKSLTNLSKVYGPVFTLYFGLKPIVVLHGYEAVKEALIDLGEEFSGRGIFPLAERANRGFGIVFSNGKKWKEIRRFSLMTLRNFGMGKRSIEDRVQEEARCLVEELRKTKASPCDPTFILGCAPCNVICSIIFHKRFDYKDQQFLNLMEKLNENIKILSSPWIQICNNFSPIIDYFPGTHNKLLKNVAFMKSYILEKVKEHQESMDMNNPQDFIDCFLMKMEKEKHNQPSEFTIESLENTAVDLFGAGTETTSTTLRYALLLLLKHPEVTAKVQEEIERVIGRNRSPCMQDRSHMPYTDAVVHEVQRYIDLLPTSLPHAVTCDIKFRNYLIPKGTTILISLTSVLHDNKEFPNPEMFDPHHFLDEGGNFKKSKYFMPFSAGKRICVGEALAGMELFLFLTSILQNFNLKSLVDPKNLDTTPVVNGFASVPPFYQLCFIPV
Sequence of DNA damage-inducible transcript 3 protein (P35639 whole entry): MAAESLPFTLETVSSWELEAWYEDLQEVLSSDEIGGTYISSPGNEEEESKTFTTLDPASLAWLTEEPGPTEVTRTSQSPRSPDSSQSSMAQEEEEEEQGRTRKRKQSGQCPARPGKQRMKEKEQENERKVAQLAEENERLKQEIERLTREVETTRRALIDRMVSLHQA

Cc1ccc(C2CC(c3cccs3)=NN2C(=O)CSc2nc(=O)n3ccc(C)cc3n2)cc1 (stereo not given)
IC50 [1]: 25.4 µM (active) | IC50 [2]: 5.52 µM (active) | IC50 (Genome polyprotein): > 49.8 µM (not active) | EC50 [3]: > 60 µM (not active) | EC50 [4]: 2.54 µM (active)

COc1cc(C(=O)O/N=C2\C=CC(=O)C(C)=C2)cc(OC)c1OC
IC50 [5]: > 50 µM (not active) | EC50 [6]: 5.17 µM (active) | IC50 (Coagulation factor XII): 0.623 µM (active) | EC50 [7]: 3.63 µM (active) | Absolute IC50 (CHOP) [8]: 10 µM

C/C(=N\O)C(=O)NCc1ccccn1
IC50 (14-3-3 protein gamma): > 50 µM (not active)

O=C(CCc1ccc(O)cc1)c1c(O)cc(O)cc1O[C@@H]1O[C@@H](CO)[C@@H](O)[C@@H](O)[C@H]1O
AC50 (Cytochrome P450 2C19): 6.31 µM (inconclusive)

Clc1ccc(C[n+]2c(-c3ccccc3)cc(-c3ccccc3)cc2-c2ccccc2)cc1.[O-][Cl+3]([O-])([O-])[O-]
AC50 (INS1): 2.05 µM (active) | EC50 (Melanocortin receptor 4): > 89.2 µM (inactive) | EC50 [3]: > 60 µM (not active) | EC50 [4]: < 0.1 µM (active) | EC50 (cells): 0.173 µM (active)

COc1ccc(C2=CC3=C(Br)C(=O)C(C)(OC(=O)c4cccs4)C(=O)C3=CO2)cc1 (stereo not given)
IC50 [9]: 16.8 µM (not active) | AC50 [10]: 2.35 µM (active) | EC50 [11]: 32.8 µM (active) | AC50 [12]: > 100 µM (inactive) | IC50 (Bcl-2-like protein 1): > 109 µM (not active) | EC50 [13]: 29.1 µM (active)

CCC(=O)Nc1ccc(C(=O)Cn2nc(C(=O)O)c3ccccc3c2=O)cc1
IC50 (Estrogen receptor beta): 5.09 µM (active)

Cc1ccc2nc(NC(=O)c3cccc(-c4cc5ccccc5oc4=O)c3)sc2c1
AC50 [14]: 1.71 µM (active) | CC50 (Vero): > 100 µM (active) | EC50 [3]: > 60 µM (not active) | EC50 [4]: 1.09 µM (active)

COc1ccc(OC2C=CC(C#Cc3ccc(Br)cc3)OC2CO)c(C(C)(C)C)c1 (stereo not given)
AC50 (Cytochrome P450 2C19): 3.16 µM (inconclusive)

O=[N+]([O-])c1ccc(Cl)c2c1C1C=CCC1C(c1ccccn1)N2 (stereo not given)
IC50 (Genome polyprotein): > 49.8 µM (not active)

COc1ccccc1-n1nnnc1SCc1cc2c(cc1Br)OCO2
IC50 (14-3-3 protein gamma): > 50 µM (not active) | IC50 [15]: 1.36 µM (not active)

COc1ccccc1-c1nnc(NC(C)=O)s1
AC50 (Cytochrome P450 2C9): inconclusive | EC50 [16]: 11 µM (not active)

COc1cc(/C=N/NC(=O)c2cccc(NC(=O)c3ccccc3)c2)ccc1O
EC50 [16]: 5.62 µM (active)

COc1cc(NC(=O)c2noc3c2CCC3)c(OC)cc1Cl
IC50 [9]: 11.1 µM (not active) | IC50 (Bcl-2-like protein 1): > 109 µM (not active)

COCc1cc(CN2CCCC(CNC(=O)c3ccc(F)cc3)C2)ccc1OC (stereo not given)
EC50 [3]: > 60 µM (not active) | EC50 [17]: > 195 µM (not active) | EC50 [4]: 0.118 µM (active)
